Experiment [1] relates to bombarded tobacco leaf explants. As to the kind of experiment: Direct selection of bombarded tobacco leaf explants on lethal level of PPT. The class given is cell-based, Nicotiana tabacum cv. Havana. The settings on record: 4 mg/L PPT, leaves bombarded with pMON53159. The method, then: Dark green, round leaves are cut, preferably from the middle of the shoots, from 3-6 week old Nicotiana tabacum cv. Havana that have been maintained in vitro on hormone-free MS medium (Murashige and Skoog, (1962) Physiol Plant. 15, 473-497) supplemented with B5 vitamins in Phytatrays or sundae cups with a 16-hour photoperiod at 24° C. Each cut leaf is then placed adaxial side up on sterile filter paper over tobacco shoot regeneration medium (TSO medium: MS salts, 1 mg/L N^6-benzyladenine, 0.1 mg/L 1-naphthaleneacetic acid, 1 mg/L thiamine, 100 mg/L inositol, 7 g/L agar pH 5.8 and 30 g/L sucrose). Leaves are preferably placed in the center of the plate with as much contact with the medium as possible. The plates are preferably prepared immediately prior to use but may be prepared up to a day before transformation by particle bombardment by wrapping in plastic bags and storing at 24° C. overnight.
Plates containing the leaf samples are placed on the second shelf from the bottom of the vacuum chamber and bombarded using the 1100 p.s.i. rupture disk. After bombardment, petri plates containing the leaf samples are wrapped in plastic bags and incubated at 24° C. for 48 hours as a delay period prior to phase one culturing.
Direct selection of phosphinothricin (PPT) resistant transformants on lethal levels of PPT using plasmid pMON53159 carrying the bar gene alone were unsuccessful. […]

Experiment [2] has as its system wild-type plant cell plastids of tobacco leaf tissue. As to the kind of experiment: Electron microscopic analysis of plastid ultrastructure in tobacco leaf tissue cultured on drug-containing medium. The experiment is classed as cell-based, Nicotiana tabacum cv Petit Havana. The method, then: (§1) Wild-type plants of Nicotiana tabacum cv Petit Havana were propagated in sterile hormone free MS medium (Murashige and Skoog (1962) Physiol. Plant. 15,473-497) supplemented with B5 vitamins in Phytatrays or sundae cups with a 16-hour photoperiod at 24° C. Leaf sections were aseptically removed and placed into new plant regeneration medium containing various concentrations of glyphosate, spectinomycin and phospinothricin. The leaf material was collected at 1-week and 4-week time points and prepared for electron microscopic observation of plastid ultrastructure. As a control, wild-type leaf sections were exposed to the initially plastid non-lethal antibiotic, spectinomycin, under identical conditions, or to medium without any drug.
Cultured tobacco leaf pieces 1 mm^2 were fixed in 4% glutaraldehyde in 0.1 M sodium cacodylate buffer, pH 7.2 for 3 hours, with the first 30 minutes under vacuum. The tissue was further fixed in 1% osmium tetroxide in the above buffer for 90 minutes and stained with 1% aqueous uranyl acetate for 2 hours. Ethanol and propylene oxide were used to dehydrate the tissue prior to infiltration with a 1:1 mixture of Spurr's:EMbed 812 resin. The resin was polymerized at 60° C. for 48 hours. The resulting blocks were sectioned on a Leica Ultracut E microtome. Sections 80 nm thick were picked up on formvar/carbon-coated copper slot grids. The grids were stained with uranyl acetate and lead citrate in a LKB Ultrastainer and examined with a JEOL 1200 transmission electron microscope. All reagents were obtained from Electron Microscopy Sciences, Fort Washington, Pa.
Tobacco leaf tissue was also analyzed on medium containing lower concentrations of glyphosate. […] Cultured tissue was prepared for electron microscopy as described above.
To test the general effect of herbicides on plastid morphology, we examined tobacco leaf cultures that were grown in the presence of phosphinothricin (PPT, active ingredient in BASTA herbicide) at 4 mg/L, the concentration normally used for nuclear transformation. Leaves from healthy, tobacco plants at the same developmental stage were cut into about 5 mm×5 mm sections and placed on MS/B5 medium with 3% sucrose, 1 mg/L BAP, 0.1 mg/L NAA and 4 mg/L phosphinothricin for the 3, 7 or 12 days. The leaf sections were then fixed and processed for TEM analysis.

The test system of experiment [3] is tobacco leaf plant cultures. As to the kind of experiment: Visual appearance of tobacco leaf cultures on drug-containing medium. The experiment is classed as cell-based, Nicotiana tabacum cv Petit Havana. The method, then: as §1

The structures appear in SMILES notation.

This note sets out measurements from US6781033B2, “Method for the transformation of plant cell plastids” (Monsanto Technology LLC, priority 2000, dated 2004).

Take `CP(=O)(O)CC[C@H](N)C(=O)O` [PPT, phosphinothricin]: the “appearance of explants under direct selection” value in experiment [1] is “bleached and demonstrated little or no cell expansion”. Also, the “plastid ultrastructure (TEM)” value was “Thylakoid membranes are completely absent” in experiment [2] (4 mg/L phosphinothricin, 3 days); “even more dramatic, with oil bodies accumulated in the organelles” in experiment [2] (4 mg/L phosphinothricin, 7 days); “even more dramatic, with oil bodies accumulated in the organelles” in experiment [2] (4 mg/L phosphinothricin, 12 days).
As to `O=C(O)CNCP(=O)(O)O` [glyphosate], the “visual effect on plant cultures” value in experiment [3] (after 1 week) is “minimal effect visually on plant cultures”; in experiment [3] (after 4 weeks, lower concentrations of glyphosate), “begin to form shoot primordia indicating recovery of the tissue”. In experiment [2] (1 μM glyphosate, 7 days), the plastoglobuli diameter entry is “approximately 0.25 μm”. The “plastid ultrastructure (TEM)” value in experiment [2] (1 μM glyphosate, 7 days, TSO medium) was “typical morphology of metabolically active photosynthetic plastids”; in experiment [2] (5 μM glyphosate, 7 days) it was “normal in appearance”; in experiment [2] (10 μM glyphosate, 7 days) it was “normal in appearance”; in experiment [2] (20 μM glyphosate, 3 days), “chloroplasts are beginning to show morphological damage”; in experiment [2] (20 μM glyphosate, 7 days) it was “thylakoid membrane system is severely damaged”; in experiment [2] (50 μM glyphosate, four weeks) it was “plastids appear to have recovered or adapted to some degree”. In addition, the “plastid ultrastructure (TEM)” value in experiment [2] (50 μM glyphosate, one week) was “reticulate network of thylakoid membranes has disappeared”; in experiment [2] (200 μM glyphosate, four weeks), “completely devoid of internal structure”; in experiment [2] (200 μM glyphosate, one week), “damage to plastid structure is occurring rapidly”.
In the case of `CN[C@@H]1[C@H](O)[C@H](NC)[C@H]2O[C@@]3(O)C(=O)C[C@@H](C)O[C@H]3O[C@@H]2[C@H]1O` [spectinomycin], the “visual effect on plant cultures” value is given as “minimal effect on plant cultures visually” in experiment [3] (after 1 week) and “tissue is completely bleached” in experiment [3] (after 4 weeks, spectinomycin). The “plastid ultrastructure (TEM)” value is “plastids internal membranes have broken down almost completely and become vacuolated” in experiment [2] (500 mg/L spectinomycin, four weeks); “plastids look relatively normal” in experiment [2] (500 mg/L spectinomycin, one week).
